Results from ChEMBL document CHEMBL4359901, “Cyclic enaminone as new chemotype for selective cyclooxygenase-2 inhibitory, anti-inflammatory, and analgesic activities” (Eur J Med Chem, 2019).

Tests used:
[1] = tested on: Rattus norvegicus; test: Antiinflammatory activity in Wistar albino rat assessed as reduction in carrageenan-induced paw volume at 12.5 mg/kg, ip measured after 1 hr by plethysmometric method (reference value: 1.43 +/- 0.19 ml); assay type: functional
[2] = tested on: Rattus norvegicus; test: Antiinflammatory activity in Sprague-Dawley rat model of carrageenan-induced thermal hyperalgesia assessed as paw withdrawal latency time at 30 mg/kg, po administered 1 hr prior to carrageenan challenge and measured after 1 hr by planter test (reference value: 8.88 +/- 0.52 sec); assay type: functional
[3] = tested on: Rattus norvegicus; test: Antiinflammatory activity in Sprague-Dawley rat model of carrageenan-induced thermal hyperalgesia assessed as paw withdrawal latency pressure at 30 mg/kg, po administered 1 hr prior to carrageenan challenge and measured after 5 hrs by Randall-Selitto test (reference value: 224.08 +/- 7.12 g); assay type: functional
[4] = Cardiotoxicity in Sprague-Dawley rat assessed as heart rate at 50 mg/kg; assay type: toxicity, organism-based; settings: in vivo
[5] = Antioxidant activity assessed as DPPH radical scavenging activity at 60 uM/ml incubated for 20 mins by spectrophotometric method relative to control; assay type: functional
[6] = Antioxidant activity assessed as DPPH radical scavenging activity at 20 uM/ml incubated for 20 mins by spectrophotometric method relative to control; assay type: functional
[7] = tested on: Rattus norvegicus; test: Analgesic activity in Wistar albino rat assessed as reaction time at 12.5 mg/kg, ip measured after 60 mins for 15 secs by hot plate method (reference value: 4.67 +/- 0.52 sec); assay type: functional
[8] = target: Prostaglandin G/H synthase 2 (Homo sapiens) (UniProt P35354); test: Inhibition of recombinant human COX2 assessed as reduction in PGF2alpha at 10 uM incubated for 2 mins using arachidonic acid as substrate by ELISA relative to control
[9] = tested on: Rattus norvegicus; test: Antiinflammatory activity in Sprague-Dawley rat model of carrageenan-induced thermal hyperalgesia assessed as paw withdrawal latency pressure at 50 mg/kg, po administered 1 hr prior to carrageenan challenge and measured after 2 hrs by Randall-Selitto test (reference value: 231.13 +/- 3.15 g); assay type: functional
[10] = tested on: Rattus norvegicus; test: Antiinflammatory activity in Sprague-Dawley rat model of carrageenan-induced thermal hyperalgesia assessed as paw withdrawal latency time at 50 mg/kg, po administered 1 hr prior to carrageenan challenge and measured after 4 hrs by planter test (reference value: 5.47 +/- 0.84 sec); assay type: functional
[11] = tested on: Rattus norvegicus; test: Antiinflammatory activity in Wistar albino rat assessed as reduction in carrageenan-induced paw edema at 25 mg/kg, ip measured after 3 hrs by plethysmometric method (reference value: 1.75 +/- 0.33 ml); assay type: functional
[12] = tested on: Rattus norvegicus; test: Antiinflammatory activity in Sprague-Dawley rat model of carrageenan-induced thermal hyperalgesia assessed as paw withdrawal latency pressure at 30 mg/kg, po administered 1 hr prior to carrageenan challenge and measured after 2 hrs by Von-frey test (reference value: 146.47 +/- 5.12 g); assay type: functional
[13] = tested on: Rattus norvegicus; test: Antiinflammatory activity in Sprague-Dawley rat model of carrageenan-induced thermal hyperalgesia assessed as paw withdrawal latency pressure at 50 mg/kg, po administered 1 hr prior to carrageenan challenge and measured after 5 hrs by Von-frey test (reference value: 169.58 +/- 4.26 g); assay type: functional
[14] = tested on: Rattus norvegicus; test: Analgesic activity in Wistar albino rat assessed as reaction time at 25 mg/kg, ip measured after 180 mins for 15 secs by hot plate method (reference value: 3.87 +/- 0.38 sec); assay type: functional
[15] = tested on: Rattus norvegicus; test: Antiinflammatory activity in Sprague-Dawley rat model of carrageenan-induced thermal hyperalgesia assessed as paw withdrawal latency pressure at 50 mg/kg, po administered 1 hr prior to carrageenan challenge and measured after 2 hrs by Von-frey test (reference value: 146.47 +/- 5.12 g); assay type: functional
[16] = tested on: Rattus norvegicus; test: Antiinflammatory activity in Sprague-Dawley rat model of carrageenan-induced thermal hyperalgesia assessed as paw withdrawal latency time at 50 mg/kg, po administered 1 hr prior to carrageenan challenge and measured after 3 hrs by planter test (reference value: 4.13 +/- 0.45 sec); assay type: functional
[17] = tested on: Rattus norvegicus; test: Antiinflammatory activity in Wistar albino rat assessed as reduction in carrageenan-induced paw volume at 12.5 mg/kg, ip measured after 2 hrs by plethysmometric method (reference value: 1.58 +/- 0.21 ml); assay type: functional
[18] = tested on: Rattus norvegicus; test: Antiinflammatory activity in Sprague-Dawley rat model of carrageenan-induced thermal hyperalgesia assessed as paw withdrawal latency time at 50 mg/kg, po administered 1 hr prior to carrageenan challenge and measured after 1 hr by planter test (reference value: 8.88 +/- 0.52 sec); assay type: functional
[19] = tested on: Rattus norvegicus; test: Antiinflammatory activity in Sprague-Dawley rat model of carrageenan-induced thermal hyperalgesia assessed as paw withdrawal latency time at 30 mg/kg, po administered 1 hr prior to carrageenan challenge and measured after 2 hrs by planter test (reference value: 6.17 +/- 0.58 sec); assay type: functional
[20] = tested on: Rattus norvegicus; test: Analgesic activity in Wistar albino rat assessed as reaction time at 12.5 mg/kg, ip measured after 30 mins for 15 secs by hot plate method (reference value: 4.21 +/- 0.41 sec); assay type: functional
[21] = Ulcerogenicity in Sprague-Dawley rat assessed as formation of ulcer at 30 mg/kg, po after 1 hr by microscopic analysis; assay type: toxicity, organism-based; settings: in vivo
[22] = tested on: Rattus norvegicus; test: Analgesic activity in Wistar albino rat assessed as reaction time at 25 mg/kg, ip measured after 60 mins for 15 secs by hot plate method (reference value: 4.67 +/- 0.52 sec); assay type: functional
[23] = tested on: Rattus norvegicus; test: Analgesic activity in Wistar albino rat assessed as reaction time at 12.5 mg/kg, ip measured after 180 mins for 15 secs by hot plate method (reference value: 3.87 +/- 0.38 sec); assay type: functional
[24] = Antioxidant activity assessed as DPPH radical scavenging activity incubated for 20 mins by spectrophotometric method; assay type: functional
[25] = tested on: Rattus norvegicus; test: Antiinflammatory activity in Wistar albino rat assessed as reduction in carrageenan-induced paw volume at 12.5 mg/kg, ip measured after 3 hrs by plethysmometric method (reference value: 1.75 +/- 0.33 ml); assay type: functional
[26] = Antioxidant activity assessed as DPPH radical scavenging activity at 80 uM/ml incubated for 20 mins by spectrophotometric method relative to control; assay type: functional
[27] = tested on: Rattus norvegicus; test: Antiinflammatory activity in Sprague-Dawley rat model of carrageenan-induced thermal hyperalgesia assessed as paw withdrawal latency pressure at 50 mg/kg, po administered 1 hr prior to carrageenan challenge and measured after 1 hr by Von-frey test (reference value: 159.88 +/- 4.66 g); assay type: functional
[28] = tested on: Rattus norvegicus; test: Antiinflammatory activity in Sprague-Dawley rat model of carrageenan-induced thermal hyperalgesia assessed as paw withdrawal latency time at 50 mg/kg, po administered 1 hr prior to carrageenan challenge and measured after 2 hrs by planter test (reference value: 6.17 +/- 0.58 sec); assay type: functional
[29] = tested on: Rattus norvegicus; test: Antiinflammatory activity in Sprague-Dawley rat model of carrageenan-induced thermal hyperalgesia assessed as paw withdrawal latency pressure at 30 mg/kg, po administered 1 hr prior to carrageenan challenge and measured after 3 hrs by Randall-Selitto test (reference value: 176.84 +/- 8.1 g); assay type: functional
[30] = Antioxidant activity assessed as DPPH radical scavenging activity at 10 uM/ml incubated for 20 mins by spectrophotometric method relative to control; assay type: functional

Prostaglandin G/H synthase 2 (Homo sapiens), sequence (P35354 whole entry, looked up): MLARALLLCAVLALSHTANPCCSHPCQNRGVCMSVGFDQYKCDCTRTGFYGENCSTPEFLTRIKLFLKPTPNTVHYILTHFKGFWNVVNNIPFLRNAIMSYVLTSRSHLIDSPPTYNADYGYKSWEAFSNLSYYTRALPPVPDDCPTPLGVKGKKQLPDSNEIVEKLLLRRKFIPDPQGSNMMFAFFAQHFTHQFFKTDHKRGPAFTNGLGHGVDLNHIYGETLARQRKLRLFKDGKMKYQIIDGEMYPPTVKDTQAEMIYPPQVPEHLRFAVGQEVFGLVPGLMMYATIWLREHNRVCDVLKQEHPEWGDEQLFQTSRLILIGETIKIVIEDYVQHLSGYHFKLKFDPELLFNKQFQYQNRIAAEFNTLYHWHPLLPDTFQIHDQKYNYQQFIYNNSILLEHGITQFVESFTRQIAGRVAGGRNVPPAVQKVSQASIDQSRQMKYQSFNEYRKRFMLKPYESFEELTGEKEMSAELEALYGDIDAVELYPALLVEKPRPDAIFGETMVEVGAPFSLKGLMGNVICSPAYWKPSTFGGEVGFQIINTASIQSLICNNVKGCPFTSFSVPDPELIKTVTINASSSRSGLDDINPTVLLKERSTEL

SMILES: CC(=O)N(C1=CC(=O)CCC1)c1ccc(Cl)cc1
- Activity [1]: 1.3 mL
- Time [2]: 10.58 s
- Activity [3]: 264.48 g
- Activity [4]: Non-Toxic
- Activity [5]: 65.3%
- Activity [6]: 22.4%
- Time [7]: 6.85 s
- inhibition [8]: 96.9%
- Activity [9]: 268.96 g
- Time [10]: 9.58 s
- Activity [11]: 1.11 mL
- Activity [12]: 157.83 g
- Activity [13]: 168.65 g
- Time [14]: 11.88 s
- Activity [15]: 168.03 g
- Time [16]: 8.38 s
- Activity [17]: 1.26 mL
- Time [18]: 12.25 s
- Time [19]: 8.01 s
- Time [20]: 6.16 s
- Activity [21]: Non-Toxic
- Time [22]: 7.27 s
- Time [23]: 8.22 s
- IC50 [24]: 48 µM
- Activity [25]: 1.18 mL
- Activity [26]: 83.9%
- Activity [27]: 170 g
- Time [28]: 9.67 s
- Activity [29]: 249.49 g
- Activity [30]: 6.18%
